The text below walks through data of US12024506B2, “Compounds” (Oxford University Innovation Limited, priority 2018, dated 2024).

A value given as a limit tells only on which side of the number the result lay.

In assay [1] the test system is H358 cells (ATCC CRL-5807). Briefly: Cell viability assay 1 (CellTiter-Glo), H358 cells. Type of assay: cell-based. To be noted: Homo sapiens, NCI-H358, 48 h, first value of the cell, read-out: Cell Viability H358 (concentration that decreases cell viability by 50%). The essentials: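 H358 cells were grown in RPMI-1640 with 10% FCS and 2 mM L-glutamine, plated at 5000 cells/well and allowed to adhere overnight. Compound was added in 0.5% DMSO final for 48 h at 37° C. Viability was read by CellTiter-Glo luminescence, with the 50% viability-reducing concentration derived from dose-response curves.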
On the technique in general: ATP-based viability assays read luminescence as a measure of living cells.

Assay [2] relates to DLD1 cells (ATCC CCL-221). Briefly: Cell viability assay 1 (CellTiter-Glo), DLD1 cells. Type of assay: cell-based. Conditions: Homo sapiens, DLD-1 cells, 48 h, second value of the cell, read-out: Cell Viability DLD-1 (concentration that decreases cell viability by 50%). Put shortly:
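DLD1 cells grown in RPMI-1640 with 10% FCS, 2 mM L-glutamine, 37 °C, 5% CO2, plated overnight then exposed to compound (0.5% DMSO) for 48 h. Viability by CellTiter-Glo luminescence; value is concentration reducing viability by 50% from dose-response curves.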

The target of assay [3] is T1, GST-human KRas166 (G12V) GPPNHP (Homo sapiens, UniProt P01116, G12V).
T1 construct: made in house; host or cells: E. coli C41(DE3)
Briefly: KRas small-molecule screening by SPR (Biacore T200). Type of assay: binding. Conditions: compound 100 uM, 5% DMSO buffer; immobilised GST-KRas166 (G12V) GPPNHP. Put shortly: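 Biacore T200 screen: compounds at 100 uM final in 5% DMSO buffer (100 mM NaCl, 5 mM MgCl2) over GPPNHP-bound GST-KRas166 G12V captured by anti-GST antibody (10,000–15,000 RU) versus GST-only channel. Expected 1:1 Rmax 63 RU; DMSO solvent correction applied.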

In the case of `COc1nc(-c2cccc3c2OCCO3)ccc1Nc1ccc(C(=O)NCC2CCNC(=O)C2)cc1` (stereo not drawn) [Example 196, 4-[6-(2,3-Dihydro-benzo[1,4]dioxin-5-yl)-2-methoxy-pyridin-3-ylamino]-N-(2-oxo-piperidin-4-ylmethyl)-benzamide], the results for the IC50 in assay [1] and in assay [2] were 30.6 µM and 7.2 µM, respectively. The “SPR Response Units” value in assay [3] is 194 Response Units.
`COc1nc(-c2cccc3c2OCCO3)ccc1Nc1ccc(CC(=O)NCC2CCN(C)CC2)cc1` [Example 197, 2-{4-[6-(2,3-Dihydro-benzo[1,4]dioxin-5-yl)-2-methoxy-pyridin-3-ylamino]-phenyl}-N-(1-methyl-piperidin-4-ylmethyl)-acetamide]: the figures for the IC50 in assay [1] and in assay [2] were more than 150 µM and 15.9 µM, respectively. For the same compound, the “SPR Response Units” value in assay [3] was determined as 453 Response Units.
For `COc1nc(-c2cccc3c2OCCO3)ccc1Nc1ccc(CC(=O)N2CCN(C)CC2)cc1` [Example 198, 2-{4-[6-(2,3-Dihydro-benzo[1,4]dioxin-5-yl)-2-methoxy-pyridin-3-ylamino]-phenyl}-1-(4-methyl-piperazin-1-yl)-ethanone] the same measures were 1.57 µM, 21.8 µM and 330 Response Units.
`COc1nc(-c2cccc3c2OCCO3)ccc1Nc1ccc(CN2CCN(Cc3cccnc3)CC2)cc1` [Example 199, [6-(2,3-Dihydro-benzo[1,4]dioxin-5-yl)-2-methoxy-pyridin-3-yl]-[4-(4-pyridin-3-ylmethyl-piperazin-1-ylmethyl)-phenyl]-amine]: the IC50 was 24.2 µM in assay [1] and 6.5 µM in assay [2]. Besides, the “SPR Response Units” value in assay [3] is reported as 93 Response Units.
For `COc1nc(-c2cccc3c2OCCO3)ccc1Nc1cccc(CN2CCCC(C(N)=O)C2)c1` (stereo not drawn) [Example 200, 1-{3-[6-(2,3-Dihydro-benzo[1,4]dioxin-5-yl)-2-methoxy-pyridin-3-ylamino]-benzyl}-piperidine-3-carboxylic acid amide], the IC50 in assay [1] was 1.5 µM; in assay [2], 8.6 µM. Besides, the “SPR Response Units” value in assay [3] was determined as 424 Response Units.
The corresponding values for `COc1nc(-c2cccc3c2OCCO3)ccc1Nc1ccc(CNCC2CCNC(=O)C2)cc1` (stereo not drawn) [Example 201, 4-({4-[6-(2,3-Dihydro-benzo[1,4]dioxin-5-yl)-2-methoxy-pyridin-3-ylamino]-benzylamino}-methyl)-piperidin-2-one] are 6.8 µM, 10.5 µM and 209 Response Units.
The corresponding values for `COc1nc(-c2cccc3c2OCCO3)ccc1Nc1cccc(CC(=O)NCC2CCN(C)CC2)c1` [Example 202, 2-{3-[6-(2,3-Dihydro-benzo[1,4]dioxin-5-yl)-2-methoxy-pyridin-3-ylamino]-phenyl}-N-(1-methyl-piperidin-4-ylmethyl)-acetamide] are 17.5 µM, 10.5 µM and 387 Response Units.
For `COc1nc(-c2cccc3c2OCCO3)ccc1Nc1cccc(CC(=O)NC2CCN(C)CC2)c1` [Example 203, 2-{3-[6-(2,3-Dihydro-benzo[1,4]dioxin-5-yl)-2-methoxy-pyridin-3-ylamino]-phenyl}-N-(1-methyl-piperidin-4-yl)-acetamide] the same measures were 33.7 µM, 12.2 µM and 339 Response Units.
Regarding `COc1nc(-c2cccc3c2OCCO3)ccc1Nc1cccc(CC(=O)N2CCN(C)CC2)c1` [Example 204, 2-{3-[6-(2,3-Dihydro-benzo[1,4]dioxin-5-yl)-2-methoxy-pyridin-3-ylamino]-phenyl}-1-(4-methyl-piperazin-1-yl)-ethanone], the IC50 was determined as 19.8 µM in assay [1] and 17.6 µM in assay [2]. The “SPR Response Units” value in assay [3] is 423 Response Units.
Take `COc1nc(-c2cccc3c2OCCO3)ccc1Nc1cccc(CC(=O)NC2CCNC(=O)C2)c1` (stereo not drawn) [Example 205, 2-{3-[6-(2,3-Dihydro-benzo[1,4]dioxin-5-yl)-2-methoxy-pyridin-3-ylamino]-phenyl}-N-(2-oxo-piperidin-4-yl)-acetamide]: the IC50 in assay [1] was 12.2 µM; in assay [2], 51.6 µM. Moreover, the “SPR Response Units” value in assay [3] came out at 142 Response Units.
The corresponding values for `COc1nc(-c2cccc3c2OCCO3)ccc1Nc1cccc(CC(=O)NC2CCC(=O)NC2)c1` (stereo not drawn) [Example 206, 2-{3-[6-(2,3-Dihydro-benzo[1,4]dioxin-5-yl)-2-methoxy-pyridin-3-ylamino]-phenyl}-N-(6-oxo-piperidin-3-yl)-acetamide] are 11 µM, 35.9 µM and 151 Response Units.
Take `COc1nc(-c2cccc3c2OCCO3)ccc1Nc1cccc(CN2CCNCC2)c1` [Example 207, [6-(2,3-Dihydro-benzo[1,4]dioxin-5-yl)-2-methoxy-pyridin-3-yl]-(3-piperazin-1-ylmethyl-phenyl)-amine]: the IC50 was determined as 5.8 µM in assay [1] and 22 µM in assay [2]. The “SPR Response Units” value in assay [3] is 1189 Response Units.
For `COc1nc(-c2cccc3c2OCCO3)ccc1Nc1cccc(CN2CCN(Cc3cn[nH]c3)CC2)c1` [Example 208, [6-(2,3-Dihydro-benzo[1,4]dioxin-5-yl)-2-methoxy-pyridin-3-yl]-{3-[4-(1H-pyrazol-4-ylmethyl)-piperazin-1-ylmethyl]-phenyl}-amine] the same measures were 17.4 µM, 5.8 µM and 1266 Response Units.
With `COc1nc(-c2cccc3c2OCCO3)ccc1Nc1cccc(CNCc2cc[nH]n2)c1` [Example 209, [6-(2,3-Dihydro-benzo[1,4]dioxin-5-yl)-2-methoxy-pyridin-3-yl]-(3-{[(1H-pyrazol-3-ylmethyl)-amino]-methyl}-phenyl)-amine], the IC50 in assay [1] is 13.4 µM; in assay [2], 14.7 µM. Further, the “SPR Response Units” value in assay [3] was 310 Response Units.
